For four compounds, IC50 results are on record in patent US7531546B2, “Spiro-substituted pyrrolo[2,3-D]pyrimidines as cathepsin inhibitors” (Novartis AG, priority 2003, dated 2009).

The target in experiment [1] is recombinant human cathepsin S (Homo sapiens, UniProt P25774). The experiment can be described thus: in vitro inhibition of recombinant human cathepsin S. The experiment is classed as biochemical. The following applies: recombinant enzyme 0.04 nM, substrate Z-Leu-Leu-4-methylcoumaryl-7-amide, pH 7.0, fluorescence readout. As to the method:
The in vitro assay is carried out in clear, flat-bottomed, 96-well microtiter plates (Greiner GmbH, Germany) at ambient temperature using recombinant human cathepsin S. Inhibition of human cathepsin S is assayed at a constant enzyme and various substrate concentrations (substrate is Z-Leu-Leu-4-methylcoumaryl-7-amide (Bachem (Switzerland)) in 100 parts 0.2M sodium phosphate, pH 7.0, containing 2 mM EDTA, 2 parts 1% Triton X-100, 10 parts 20 mM dithiothreitol (DTT) and 58 parts distilled water. The assay is started by adding the enzyme solution (13 times higher concentration of final concentration of recombinant human Cathepsin S) to the reaction mixture containing various concentrations of the corresponding substrate and the compound. Substrate concentrations between 3.4 and 17 μM are used. The recombinant human Cathepsin S is used at a final concentration of 0.04 nM. Test compounds are used at concentrations between 0.4 and 2 times the determined IC50 of the compound at the enzyme. The relative fluorescence is continuously measured for 30 minutes and the initial velocity is obtained from each progress curve. […]

In experiment [2] the target is T1, recombinant human cathepsin K (Homo sapiens, UniProt P43235).
T1 sequence (P43235 115-329): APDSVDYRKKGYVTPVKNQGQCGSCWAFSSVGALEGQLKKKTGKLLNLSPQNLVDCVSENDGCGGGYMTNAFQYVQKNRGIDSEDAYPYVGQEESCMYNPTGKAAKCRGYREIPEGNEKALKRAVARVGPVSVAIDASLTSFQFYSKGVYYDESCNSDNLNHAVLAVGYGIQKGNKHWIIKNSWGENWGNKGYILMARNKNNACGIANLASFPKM
The experiment can be described thus: in vitro inhibition of recombinant human cathepsin K. The experiment is classed as biochemical. The following applies: recombinant enzyme, substrate Z-Phe-Arg-AMCA, pH 7.0, 30 min preincubation, fluorescence readout. As to the method:
The in vitro assay is carried out as follows:
The assay is performed in 96 well microtiter plates at ambient temperature using recombinant human cathepsin K. Inhibition of cathepsin K is assayed at a constant enzyme (0.16 nM) and substrate concentration ([…] Z-Phe-Arg-AMCA—Peptide Institute Inc. Osaka, Japan) in 100 mM sodium phosphate buffer, pH 7.0, containing 2 mM dithiothreitol, 20 mM Tween 80 and 1 mM EDTA. Cathepsin K is preincubated with the inhibitors for 30 min, and the reaction is initiated by the addition of substrate. After 30 min incubation the reaction is stopped by the addition of E-64 (2 mM), and fluorescence intensity is read on a multi-well plate reader at excitation and emission wavelengths of 360 and 460 nm, respectively.

recombinant human cathepsin S, sequence (P25774 115-331): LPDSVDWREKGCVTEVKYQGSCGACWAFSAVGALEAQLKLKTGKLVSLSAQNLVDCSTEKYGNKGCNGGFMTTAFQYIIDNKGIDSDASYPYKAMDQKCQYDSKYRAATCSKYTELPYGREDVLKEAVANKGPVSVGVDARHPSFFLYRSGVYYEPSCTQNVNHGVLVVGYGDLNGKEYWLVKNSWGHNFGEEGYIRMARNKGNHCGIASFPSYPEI

As to `CC(=O)N1CCC2(CC1)C(=O)N(Cc1cc3cnc(C#N)nc3n1CCC(C)(C)C)c1ccccc12` [Example 4-9], the IC50 (as a rule, the midpoint of a concentration-inhibition curve) was 10 nM in experiment [1] and 16 nM in experiment [2].

For `CC(C)(C)CCn1c(CN2CCC3(CCN(S(C)(=O)=O)CC3)C2)cc2cnc(C#N)nc21` [Example 4-3], the results for the IC50 in experiment [1] and in experiment [2] were 6 nM and 8 nM, respectively.

Take `CC(C)(C)Cn1c(CN2C(=O)CC3(CCNCC3)C2=O)cc2cnc(C#N)nc21` [Example 3-0, 7-(2,2-Dimethyl-propyl)-6-(1,3-dioxo-2,8-diaza-spiro[4.5]dec-2-ylmethyl)-7H-pyrrolo[2,3-d]pyrimidine-2-carbonitrile]: in experiment [2], the IC50 is around 0.16 nM.

As for `CC(=O)N1CCC2(CC1)C(=O)N(Cc1cc3cnc(C#N)nc3n1CCC1CCCCC1)c1ccccc12` [Example 4-8], the IC50 in experiment [1] was around 9 nM.
